Test system: primary cortical neuronal cultures treated with CPT
Test: Ga-TC3-OGDOTA accumulation in CPT toxicity assay
Format: cell-based, mouse
Settings: 10 μM CPT, 24 h
Experimental: For the in vitro cell culture studies, primary hippocampal and cortical neuronal cultures were prepared from E17 mouse embryos as described previously and cultured in regular neuronal medium (RNM) containing 1x B27, 0.5 mM glutamine, 0.25% glucose in Neurobasal medium (Invitrogen).
Three different conditions known to induce neuronal apoptosis were used to study Ga-TC3-OGDOTA uptake in cell culture: camptothecin (CPT) toxicity, OGD, and AβO toxicity. […] For the CPT toxicity assay, cortical neurons were treated with 0 (control) or 10 μM CPT (Sigma-Aldrich) for 24 h at normal conditions (5% CO2, 37°C). After that the cultures were washed with RNM and incubated with various concentrations of Ga-TC3-OGDOTA for 7 h, followed by either direct live imaging or fixation with 4% paraformaldehyde (PFA) in PBS for staining. […]
For coimaging of Hoechst 33342 (Hoechst), 4′,6′-Diamidino-2-Phenylindole (DAPI), Oregon Green and CC3, fixed cultures were immunostained with anti-CC3 antibody (1 : 500, Cell Signaling, cat#9661) followed by antirabbit secondary antibody and DAPI or Hoechst. […] Cells positive for tracer, CC3, and total number of cells were counted using the ImageJ (NIH, Bethesda, MD) Cell Counter plugin and their ratio was compared between the treatments.

## CC[C@@]1(O)C(=O)OCc2c1cc1n(c2=O)Cc2cc3ccccc3nc2-1 [CPT, camptothecin]
  effect on number of apoptotic neurons in the culture: elevated

Source: PMC6348924, “Detection of Active Caspase-3 in Mouse Models of Stroke and Alzheimer's Disease with a Novel Dual Positron Emission Tomography/Fluorescent Tracer [^68Ga]Ga-TC3-OGDOTA” (Contrast Media & Molecular Imaging, 2019)
